Results from PMC6100259, “Insights into Structure-Activity Relationships of 3-Arylhydrazonoindolin-2-One Derivatives for Their Multitarget Activity on β-Amyloid Aggregation and Neurotoxicity” (Molecules : A Journal of Synthetic Chemistry and Natural …, 2018).
Read-outs that look alike come from different tables or passages of the source.

Assays:
Aβ40 peptide = biological target: T1, Aβ40 peptide (Homo sapiens, UniProt P05067); test: Inhibition of Aβ40 aggregation, ThT fluorescence-based method; assay type: biochemical; conditions: for Aβ aggregation inhibition, result in words: Aβ40, ThT assay; for inhibition at 100 µM: Aβ40, compound 100 µM, ThT fluorescence, read-out: % Inhibition @ 100 µM, Aβ antiaggregating activity; for fold less potent than compound 1 (Aβ40 aggregation): ratio of IC50s vs compound 1
T1 construct: we preferred using Aβ40 peptide
T1 sequence (P05067 672-711 limits assumed): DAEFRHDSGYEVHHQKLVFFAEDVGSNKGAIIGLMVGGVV
Procedure: In vitro inhibition of Aβ aggregation was assessed through a ThT fluorescence-based method, with the use of 2% 1,1,1,3,3,3-hexafluoroisopropanol (HFIP) as aggregation enhancer. In this medium-throughput assay, we preferred using Aβ40 peptide, being more manageable than Aβ42 and less prone to the formation of preaggregates. Samples of Aβ were co-incubated with test molecules in PBS at 100 µM concentration and the antiaggregating activities were measured after 2 h of incubation at 25 °C. For compounds showing >80% Aβ40 aggregation inhibition, IC50s were determined.
The spectrofluorimetric assays, measuring ThT fluorescence in the presence of Aβ, were done as previously described. Briefly, coincubation samples were prepared as described above (Section 2.2 and Section 2.3) in 96-well black, non-binding microplates (Greiner Bio-One GmbH, Frickenhausen, Germany). Fluorimetric reads were performed in a multiplate reader Infinite M1000 Pro (Tecan, Cernusco sul Naviglio, Italy). Each concentration point was run in triplicate. CD ellipticity measures were performed as detailed in ref. [20], following the increase of the negative band at 215 nm as indicative of β-sheet arrangement.

[1] = Lipophilicity by RP-HPLC (log k'w); assay type: physicochemical; conditions: RP-HPLC C18, MeOH/10 mM ammonium formate buffer pH 4.5, extrapolated to 100% aqueous mobile phase, 25 °C
Procedure: To place on a more quantitative basis the above SAR trends, the lipophilicity of a number of isatin arylhydrazone derivatives was measured by an RP-HPLC method. The polycratic capacity factors (log k’w) were determined (details in the Experimental Section). Lipophilicity descriptors (i.e., 1-octanol–water partition coefficients) were also calculated (CLOGPs) using two computational tools (Bio-Loom software, v. 1.7 and ACDLabs software, release 10.0). The ACDLabs software was used also for calculating descriptors of polarizability and size, namely molar refractivity (CMR) and molar volume (MV). The experimental lipophilicity parameters (log k’w), along with CMR and MV, are reported in Table 6 for 18 compounds achieving finite IC50s (<100 µM) in the Aβ aggregation assay.
The lipophilicity parameters were determined by an RP-HPLC technique. Methanol solutions of the investigated hydrazone compounds (0.5 mg/mL) were injected into an Agilent 1260 infinity HPLC system (Agilent Technologies Italia, Milan), equipped with a diode array detector (DAD), and a Phenomenex Kinetex C18 column (150 × 4.6 mm, 5 μ, Phenomenex Italy s.r.l., Castel Maggiore, BO, Italy), and eluted at different mobile phase compositions (0.05 increments of MeOH volume fraction in 10 mM ammonium formate buffer at pH 4.5, ranging ϕ between 0.85 and 0.30). All RP-HPLC measurements were carried out at 25 ± 1 °C, at a flow rate of 1.0 mL/min, and at 254 nm wavelength.
The logarithm of capacity factors (log k′ = log (tR − t0)/t0) of each compound at different mobile phase compositions have been calculated; tR represents the retention time of the solute and t0 is the column dead time, measured as the elution time of a KNO3 solution in MeOH. For each compound, the log k′ values increased linearly with decreasing MeOH volume fraction. Logarithms of capacity factors extrapolated to the 100% aqueous mobile phase (log k′w) were calculated from the linear regressions on at least five data points (r^2 > 0.975).

[2] = 2% HFIP, PBS, 2 h at 25 °C, mean ± SEM of three independent experiments
[3] = Aβ40 aggregation inhibition, read-out: pIC50, Aβ antiaggregating potency (converted)

Structure (SMILES)	inhibition at 100 µM (Aβ40 peptide; [2]) [%]	log k'w [1]	further results
COc1ccc2c(c1)/C(=N/Nc1ccnc3cc(Cl)ccc13)C(=O)N2 [Compound 11, (Z)-3-(2-(7-Chloroquinolin-4-yl)hydrazono)-5-methoxy-indolin-2-one]	14	–	Aβ aggregation inhibition, result in words (Aβ40 peptide): very weak inhibitor
COc1ccc2c(c1)/C(=N/Nc1nc(C)c(C)s1)C(=O)N2 [Compound 14, (Z)-3-(2-(4,5-Dimethylthiazol-2-yl)hydrazono)-5-methoxyindolin-2-one]	43	–	Aβ aggregation inhibition, result in words (Aβ40 peptide): very weak inhibitor
COc1ccc2c(c1)/C(=N/Nc1nc(-c3cccc(O)c3)cs1)C(=O)N2 [Compound 16, (Z)-3-(2-(4-(3-Hydroxyphenyl)thiazol-2-yl)hydrazono)-5-methoxyindolin-2-one]	–	4.58	IC50 (Aβ40 peptide; [3]): 15.8 µM
COc1ccc2c(c1)/C(=N/Nc1ccc(C(F)(F)F)cc1)C(=O)N2 [Compound 5, (Z)-5-Methoxy-3-(2-(4-(trifluoromethyl)phenyl)hydrazono)indolin-2-one]	57	–	–
COc1ccc2c(c1)/C(=N\N=C/c1cccc(Cl)c1)C(=O)N2 [Compound 22, (Z)-3-((E)-(3-chlorobenzylidene)hydrazono)-5-methoxyindolin-2-one]	–	4.21	IC50 (Aβ40 peptide; [3]): 11 µM
COc1ccc2c(c1)/C(=N/Nc1ccc(C(C)C)cc1)C(=O)N2CCCc1ccccc1 [Compound 34, (Z)-3-(2-(4-Isopropylphenyl)hydrazono)-5-methoxy-1-(3-phenylpropyl)indolin-2-one]	–	7.87	IC50 (Aβ40 peptide): 0.83 ± 0.2 µM
COc1ccc2c(c1)/C(=N/Nc1cccc3ccccc13)C(=O)N2 [Compound 8, (Z)-5-Methoxy-3-(2-(naphthalen-1-yl)hydrazono)indolin-2-one]	–	5.15	IC50 (Aβ40 peptide; [3]): 28.2 µM
CC(C)c1ccc(N/N=C2\C(=O)Nc3cc4c(cc32)OCO4)cc1 [Compound 39, (Z)-7-(2-(4-isopropylphenyl)hydrazono)-5H-[1,3]dioxolo[4,5-f]indol-6(7H)-one]	70 ± 4	–	–
COc1ccc2[nH]cc(/C=N/Nc3ccc(C(C)C)cc3)c2c1 [Compound 19]	–	6.42	IC50 (Aβ40 peptide): 41 ± 3 µM; fold less potent than compound 1 (Aβ40 aggregation) (Aβ40 peptide): 100 fold
COc1ccc2c(c1)/C(=N/Nc1ccc3ccccc3n1)C(=O)N2 [Compound 9, (Z)-5-Methoxy-3-(2-(quinolin-2-yl)hydrazono)indolin-2-one]	67	–	–
COc1ccc2c(c1)/C(=N/Nc1ccc(C(C)C)cc1)C(=O)N2Cc1ccccc1 [Compound 32, (Z)-1-Benzyl-3-(2-(4-isopropylphenyl)hydrazono)-5-methoxyindolin-2-one]	–	7.44	IC50 (Aβ40 peptide): 0.53 ± 0.1 µM
COc1ccc2c(c1)/C(=N/Nc1nc(-c3ccccc3)cs1)C(=O)N2 [Compound 15]	–	5.10	IC50 (Aβ40 peptide; [3]): 1.2 µM
COc1ccc2c(c1)/C(=N/Nc1cccc3cccnc13)C(=O)N2 [Compound 10, (Z)-5-Methoxy-3-(2-(quinolin-8-yl)hydrazono)indolin-2-one]	58	–	–
COc1ccc2c(c1)/C(=N/Nc1ccc(C(C)C)cc1)C(=O)N2C [Compound 26, (Z)-3-(2-(4-Isopropylphenyl)hydrazono)-5-methoxy-1-methylindolin-2-one]	–	5.96	IC50 (Aβ40 peptide): 0.81 ± 0.11 µM
COc1ccc2c(c1)/C(=N/Nc1nc(-c3cccc(Br)c3)cs1)C(=O)N2 [Compound 18, (Z)-3-(2-(4-(3-Bromophenyl)thiazol-2-yl)hydrazono)-5-methoxyindolin-2-one]	–	5.67	IC50 (Aβ40 peptide; [3]): 39.8 µM
COc1ccc2c(c1)/C(=N\N=C/c1ccc(C(C)C)cc1)C(=O)N2 [Compound 21, (Z)-3-((E)-(4-Isopropylbenzylidene)hydrazono)-5-methoxyindolin-2-one]	–	4.82	IC50 (Aβ40 peptide; Aβ40, ThT fluorescence, 2% HFIP, PBS, 2 h at 25 °C, mean ± SEM of three independent experiments, read-out: IC50 (µM), Aβ antiaggregating activity): 6.7 ± 0.2 µM
COc1cccc(-c2csc(N/N=C3\C(=O)Nc4ccc(OC)cc43)n2)c1 [Compound 17, (Z)-5-Methoxy-3-(2-(4-(3-methoxyphenyl)thiazol-2-yl)hydrazono)indolin-2-one]	–	5.29	IC50 (Aβ40 peptide; [3]): 33.9 µM
COc1ccc2c(c1)/C(=N/Nc1ccc(C(C)C)cc1)C(=O)N2CCc1ccccc1 [Compound 33, (Z)-3-(2-(4-Isopropylphenyl)hydrazono)-5-methoxy-1-phenethylindolin-2-one]	–	7.24	IC50 (Aβ40 peptide): 0.61 ± 0.03 µM
COc1ccc2c(c1)/C(=N/Nc1ccccn1)C(=O)N2 [Compound 7, (Z)-5-Methoxy-3-(2-(pyridin-2-yl)hydrazono)indolin-2-one]	–	2.34	IC50 (Aβ40 peptide): 90 ± 5 µM
COc1ccc2c(c1)C(=NNC(=O)c1cccc(Cl)c1)C(=O)N2 [Compound 23, 3-Chloro-N’-(5-methoxy-2-oxoindolin-3-ylidene)benzohydrazide]	31	–	Aβ aggregation inhibition, result in words (Aβ40 peptide): sharp drop of activity
CCCCc1ccc2c(c1)C(=NNc1ccc(C(C)C)cc1)C(=O)N2 [Compound 36, 5-Butyl-3-(2-(4-isopropylphenyl)hydrazono)indolin-2-one]	55 ± 1	–	–
COc1ccc2c(c1)/C(=N/Nc1cc(C(F)(F)F)cc(C(F)(F)F)c1)C(=O)N2 [Compound 6, (Z)-3-(2-(3,5-bis(trifluoromethyl)phenyl)hydrazono)-5-methoxyindolin-2-one]	–	6.29	IC50 (Aβ40 peptide): 9.9 ± 0.8 µM; fold less potent than compound 1 (Aβ40 aggregation) (Aβ40 peptide): 25 fold
COc1ccc2c(c1)/C(=N/N(C)c1ccc(C(C)C)cc1)C(=O)N2C [Compound 24, (Z)-3-(2-(4-Isopropylphenyl)-2-methylhydrazono)-5-methoxy-1-methylindolin-2-one]	–	4.23	IC50 (Aβ40 peptide; [3]): 11 µM; fold decrease in inhibition potency compared with 26 (Aβ40 peptide; vs non-methylated compound 26): more than 10 fold
COc1ccc2c(c1)/C(=N/Nc1nc(CCl)cs1)C(=O)N2 [Compound 13, (Z)-3-(2-(4-(Chloromethyl)thiazol-2-yl)hydrazono)-5-methoxyindolin-2-one]	–	3.95	IC50 (Aβ40 peptide; [3]): 12.9 µM
COc1ccc2c(c1)/C(=N/Nc1ccc(C#N)cc1)C(=O)N2 [Compound 4, (Z)-4-(2-(5-Methoxy-2-oxoindolin-3-ylidene)hydrazinyl)benzonitrile]	16	–	–
CC(C)c1ccc(NN=C2C(=O)Nc3c(Br)cccc32)cc1 [Compound 37, 7-Bromo-3-(2-(4-isopropylphenyl)hydrazono)indolin-2-one]	< 5	–	Aβ aggregation inhibition, result in words (Aβ40 peptide): complete loss of activity
CC(C)c1ccc(NN=C2C(=O)Nc3ccc(S(=O)(=O)O)cc32)cc1 [Compound 38, Sodium 3-(2-(4-isopropylphenyl)hydrazono)-2-oxoindolin-5-sulfonate]	35 ± 4	–	–
